Measurements as given in article PMC8800105 (The Journal of Biological Chemistry, 2021).

Target: TRPA1 (Homo sapiens, UniProt O75762)
Assay: whole-cell patch clamp in HEK293
Type: cell-based

Chain of TRPA1 (O75762 whole entry): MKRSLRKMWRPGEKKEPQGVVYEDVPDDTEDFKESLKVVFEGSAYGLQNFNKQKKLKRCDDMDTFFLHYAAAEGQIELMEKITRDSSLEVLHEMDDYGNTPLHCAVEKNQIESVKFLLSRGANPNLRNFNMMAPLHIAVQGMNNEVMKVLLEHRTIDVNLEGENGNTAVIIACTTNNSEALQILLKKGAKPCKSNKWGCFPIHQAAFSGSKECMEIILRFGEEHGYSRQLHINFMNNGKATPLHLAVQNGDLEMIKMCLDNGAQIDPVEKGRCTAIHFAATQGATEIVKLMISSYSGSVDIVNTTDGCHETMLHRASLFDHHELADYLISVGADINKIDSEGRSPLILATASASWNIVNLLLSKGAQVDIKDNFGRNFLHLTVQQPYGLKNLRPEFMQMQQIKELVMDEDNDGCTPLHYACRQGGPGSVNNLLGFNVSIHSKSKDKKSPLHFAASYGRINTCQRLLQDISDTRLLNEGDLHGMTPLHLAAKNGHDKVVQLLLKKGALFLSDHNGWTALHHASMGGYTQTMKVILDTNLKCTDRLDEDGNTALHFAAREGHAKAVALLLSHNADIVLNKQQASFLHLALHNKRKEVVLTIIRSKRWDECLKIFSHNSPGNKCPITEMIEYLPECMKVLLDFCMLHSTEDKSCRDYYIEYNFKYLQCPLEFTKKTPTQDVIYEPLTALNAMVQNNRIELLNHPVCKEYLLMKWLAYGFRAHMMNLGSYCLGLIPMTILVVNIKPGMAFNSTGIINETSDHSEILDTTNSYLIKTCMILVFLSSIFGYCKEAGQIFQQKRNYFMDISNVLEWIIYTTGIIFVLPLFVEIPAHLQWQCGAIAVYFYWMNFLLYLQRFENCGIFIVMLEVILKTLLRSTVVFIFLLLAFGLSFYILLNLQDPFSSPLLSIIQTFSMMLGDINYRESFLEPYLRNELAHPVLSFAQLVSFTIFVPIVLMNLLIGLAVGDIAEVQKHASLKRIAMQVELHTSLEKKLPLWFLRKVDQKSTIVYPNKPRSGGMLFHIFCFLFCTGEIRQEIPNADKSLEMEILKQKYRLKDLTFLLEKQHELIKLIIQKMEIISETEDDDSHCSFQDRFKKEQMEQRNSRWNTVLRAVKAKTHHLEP

SMILES | EC50
O=[N+]([O-])c1ccc(Cl)c([N+](=O)[O-])c1 [DNCB] | 42.4 ± 20.9 µM
O=[N+]([O-])c1ccc(F)c([N+](=O)[O-])c1 [DNFB] | 2.3 ± 0.7 µM
